Results taken from patent US20240216304A1, “CAPSAICIN AND TRPV1 MODULATOR COMPOSITIONS AND METHODS OF USE THEREOF” (The Children's Hospital of Philadelphia, priority 2020, published 2024).

Columns and labels:
TRPV1 = target: T1, TRPV1 (Homo sapiens, UniProt Q8NER1); experiment: Capsaicinoid-induced TRPV1 signaling in DRG neurons, Fluo-8 calcium imaging; type: cell-based; settings: for treated neurons responding: agonist alone
T1 construct: TRPV1 primary signaling in Human dorsal root ganglia (DRG) neurons in culture; endogenous in cells; host or cells: human dorsal root ganglia (DRG) neurons in culture
Source text: The aim of this study was to evaluate the effects of oleic acid on antagaonizing capsaicinoid-induced TRPV1 primary signaling in Human dorsal root ganglia (DRG) neurons in culture. Human DRG neurons were studied in a perfusion system using the calcium dye Fluo-8. Detection of intracellular calcium transients was accomplished by measuring the changes in the fluorescence intensity of the Fluo-8 calcium indicator upon excitation at 480 nm and recording of the emitted signal at 520 nm using a pcoEDGE sCMOS camera mounted on an inverted microscope (Olympus IX71). The following protocol was utilized to study the effects of the fatty acids on capsaicin and DHC-stimulated calcium currents.

Diabetic Mice = experiment: Capsaicinoid-fatty acid combinations on glucose tolerance and insulin sensitivity in diabetic mice; type: in vivo; settings: administered in the absence of OA (capsaicin 5 mg/kg, DHC 1 mg/kg); groups discontinued after first 72 hours (6 doses)
Protocol: Eighty-four male db db mice (BKS. CG-Dock7m+/+LeprdbJ) are randomized at 8 weeks of age to produce seven equivalent groups (n=12/group) with respect to 4-hour fasting glucose and body weight. Treatment groups are as follow: Control (untreated); Capsaicin (5 mg/kg)+OA (615 mg/kg); DHC (1 mg/kg)+OA (615 mg/kg); capsaicin (10 mg/kg)+OA (615 mg/kg); DHC (10 mg/kg)+OA (615 mg/kg); capsaicin (5 mg/kg); DHC (1 mg/kg). Animals are administered the formulations via oral gavage in a volume of 5 mL/kg) twice daily for 28 days. Blood glucose is measured following a four hour fast on days 0, 7, 14, 21 and 28. On day 28, an oral glucose tolerance test (OGTT) is performed following a four-hour fast. Glucose (1.2 g/kg) is dosed at […], and glucose and insulin are measured at t=−60 minutes, 0, 15, 30, 60, 120, 180 and 240 minutes.

T1 sequence (Q8NER1 whole entry): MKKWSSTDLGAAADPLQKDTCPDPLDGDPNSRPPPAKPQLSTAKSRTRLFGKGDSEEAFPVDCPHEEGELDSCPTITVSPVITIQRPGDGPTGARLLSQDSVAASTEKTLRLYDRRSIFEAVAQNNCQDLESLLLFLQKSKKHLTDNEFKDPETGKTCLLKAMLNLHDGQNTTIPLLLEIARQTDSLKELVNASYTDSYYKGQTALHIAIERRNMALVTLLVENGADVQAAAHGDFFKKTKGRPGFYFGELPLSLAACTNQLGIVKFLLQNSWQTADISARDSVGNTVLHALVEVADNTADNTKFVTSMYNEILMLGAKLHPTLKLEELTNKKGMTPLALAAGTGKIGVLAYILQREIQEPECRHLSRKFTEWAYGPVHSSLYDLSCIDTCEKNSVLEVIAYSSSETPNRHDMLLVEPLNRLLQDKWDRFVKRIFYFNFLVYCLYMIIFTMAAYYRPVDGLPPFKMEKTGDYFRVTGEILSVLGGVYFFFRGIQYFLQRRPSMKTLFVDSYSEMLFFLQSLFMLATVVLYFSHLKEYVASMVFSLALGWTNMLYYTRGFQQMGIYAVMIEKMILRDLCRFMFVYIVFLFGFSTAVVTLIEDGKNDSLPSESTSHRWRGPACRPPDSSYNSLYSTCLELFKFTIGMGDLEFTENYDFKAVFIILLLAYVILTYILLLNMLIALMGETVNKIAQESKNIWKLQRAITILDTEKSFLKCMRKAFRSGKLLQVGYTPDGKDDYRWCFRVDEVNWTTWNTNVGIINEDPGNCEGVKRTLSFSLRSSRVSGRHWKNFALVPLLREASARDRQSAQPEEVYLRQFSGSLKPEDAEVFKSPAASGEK

Compound | maximal calcium (ΔF/F0) signal (TRPV1; DHC alone) | treated neurons responding (TRPV1) | tolerability (Diabetic Mice) | maximal calcium (ΔF/F0) signal (TRPV1; DHC as agonist, with oleic acid administration) | neurons responding (TRPV1; DHC as agonist, with oleic acid administration (DHC alone 59%)) | neurons responding (TRPV1; capsaicin as agonist, with oleic acid administration (capsaicin alone 74%))
COc1cc(CNC(=O)CCCCCCC(C)C)ccc1O [DHC, dihydrocapsaicin] | 4.57 | 59% | poorly tolerated | – | – | –
COc1cc(CNC(=O)CCCC/C=C/C(C)C)ccc1O [capsaicin, (6E)-N-[(4-Hydroxy-3-methoxyphenyl)methyl]-8-methylnon-6-enamide] | – | 74% | poorly tolerated | – | – | –
CCCCCCCC/C=C\CCCCCCCC(=O)O [oleic acid] | – | – | – | 2.81 | 38% | 51%
